The source of these data is US10308643B2, “Heterocyclic compound” (Takeda Pharmaceutical Company Limited, priority 2015, dated 2019).

Holding throughout (type): biochemical
One experiment has as its target T1, HDAC1 enzyme (Homo sapiens, UniProt Q13547).
T1 construct: transducing full length HDAC1 and HDAC6 genes into Sf-9 insect cells; GST; purchased SignalChem; host or cells: Sf-9 insect cells
The experiment is described as follows: HDAC1/6 Enzyme Inhibitory Assay (HDAC-Glo I/II Assay kit), HDAC1. Particulars: 1 μM test compound, wells without enzyme = 100% inhibition; for inhibition at 1 µM: read-out: HDAC1 inhibitory rate (%) (1 μM). In a few lines:
(§1)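 Luminescent HDAC-Glo I/II read-out was taken 20 min after adding substrate-developer, at room temperature. Before this, compound and enzyme were held together for 60 min in 24 mM Tris-HCl pH 7.5 with 0.6 mM glutathione and 0.01% Tween-20. The enzyme was full-length HDAC1 or HDAC6 from Sf-9 cells, GST-purified. Wells without enzyme defined 100% inhibition.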

A further experiment deals with T2, HDAC9 enzyme (Homo sapiens, UniProt Q9UKV0).
T2 construct: transducing full length HDAC9 gene into Sf-9 insect cells; made in house; host or cells: Sf-9 insect cells
T2 sequence (Q9UKV0 whole entry, species assumed): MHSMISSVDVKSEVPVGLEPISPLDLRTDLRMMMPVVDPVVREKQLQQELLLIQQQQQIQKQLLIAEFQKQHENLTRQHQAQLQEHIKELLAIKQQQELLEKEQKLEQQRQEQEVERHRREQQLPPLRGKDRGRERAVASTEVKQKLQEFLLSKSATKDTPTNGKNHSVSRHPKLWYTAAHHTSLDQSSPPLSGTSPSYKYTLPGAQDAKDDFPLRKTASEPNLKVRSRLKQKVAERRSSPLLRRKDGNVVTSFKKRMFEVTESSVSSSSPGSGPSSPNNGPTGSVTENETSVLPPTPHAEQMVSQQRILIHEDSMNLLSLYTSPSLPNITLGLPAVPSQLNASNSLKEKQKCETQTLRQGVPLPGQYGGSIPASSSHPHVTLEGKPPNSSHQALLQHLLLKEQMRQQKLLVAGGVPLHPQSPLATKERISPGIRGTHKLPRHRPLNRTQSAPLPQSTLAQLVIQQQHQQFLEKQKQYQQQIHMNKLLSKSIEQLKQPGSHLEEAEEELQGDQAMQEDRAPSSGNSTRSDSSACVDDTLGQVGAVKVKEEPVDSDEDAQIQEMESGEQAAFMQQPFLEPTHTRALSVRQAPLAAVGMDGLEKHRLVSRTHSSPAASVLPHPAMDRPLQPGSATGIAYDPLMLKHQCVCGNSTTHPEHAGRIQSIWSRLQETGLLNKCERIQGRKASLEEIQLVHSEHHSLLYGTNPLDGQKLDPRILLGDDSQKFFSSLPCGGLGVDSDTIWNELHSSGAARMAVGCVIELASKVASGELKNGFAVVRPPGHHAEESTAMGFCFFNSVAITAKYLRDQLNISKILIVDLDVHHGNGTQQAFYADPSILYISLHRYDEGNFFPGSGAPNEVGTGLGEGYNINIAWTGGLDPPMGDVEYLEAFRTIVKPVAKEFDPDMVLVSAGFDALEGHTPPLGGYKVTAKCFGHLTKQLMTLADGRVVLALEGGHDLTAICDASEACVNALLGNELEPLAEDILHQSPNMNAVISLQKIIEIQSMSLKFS
The experiment can be described thus: HDAC9 Enzyme Inhibitory Assay (HDAC-Glo class IIa). Particulars: 1 μM test compound; wells without enzyme = 100% inhibition; read-out: HDAC9 inhibitory rate (%) (1 μM). In a few lines: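 Full-length human HDAC9 from Sf-9 cells, Ni-NTA purified, preincubated with compound for 60 min at room temperature in Tris-HCl pH 7.5 buffer (MgCl2, KCl, NaCl, glutathione, Tween-20). HDAC-Glo class IIa substrate-developer added; luminescence read after 20 min, with no-enzyme wells defining 100% inhibition.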

The next experiment concerns the target T3, HDAC6 enzyme (Homo sapiens, UniProt Q9UBN7).
T3 construct: transducing full length HDAC1 and HDAC6 genes into Sf-9 insect cells; GST; purchased SignalChem; host or cells: Sf-9 insect cells
T3 sequence (Q9UBN7 1-1215): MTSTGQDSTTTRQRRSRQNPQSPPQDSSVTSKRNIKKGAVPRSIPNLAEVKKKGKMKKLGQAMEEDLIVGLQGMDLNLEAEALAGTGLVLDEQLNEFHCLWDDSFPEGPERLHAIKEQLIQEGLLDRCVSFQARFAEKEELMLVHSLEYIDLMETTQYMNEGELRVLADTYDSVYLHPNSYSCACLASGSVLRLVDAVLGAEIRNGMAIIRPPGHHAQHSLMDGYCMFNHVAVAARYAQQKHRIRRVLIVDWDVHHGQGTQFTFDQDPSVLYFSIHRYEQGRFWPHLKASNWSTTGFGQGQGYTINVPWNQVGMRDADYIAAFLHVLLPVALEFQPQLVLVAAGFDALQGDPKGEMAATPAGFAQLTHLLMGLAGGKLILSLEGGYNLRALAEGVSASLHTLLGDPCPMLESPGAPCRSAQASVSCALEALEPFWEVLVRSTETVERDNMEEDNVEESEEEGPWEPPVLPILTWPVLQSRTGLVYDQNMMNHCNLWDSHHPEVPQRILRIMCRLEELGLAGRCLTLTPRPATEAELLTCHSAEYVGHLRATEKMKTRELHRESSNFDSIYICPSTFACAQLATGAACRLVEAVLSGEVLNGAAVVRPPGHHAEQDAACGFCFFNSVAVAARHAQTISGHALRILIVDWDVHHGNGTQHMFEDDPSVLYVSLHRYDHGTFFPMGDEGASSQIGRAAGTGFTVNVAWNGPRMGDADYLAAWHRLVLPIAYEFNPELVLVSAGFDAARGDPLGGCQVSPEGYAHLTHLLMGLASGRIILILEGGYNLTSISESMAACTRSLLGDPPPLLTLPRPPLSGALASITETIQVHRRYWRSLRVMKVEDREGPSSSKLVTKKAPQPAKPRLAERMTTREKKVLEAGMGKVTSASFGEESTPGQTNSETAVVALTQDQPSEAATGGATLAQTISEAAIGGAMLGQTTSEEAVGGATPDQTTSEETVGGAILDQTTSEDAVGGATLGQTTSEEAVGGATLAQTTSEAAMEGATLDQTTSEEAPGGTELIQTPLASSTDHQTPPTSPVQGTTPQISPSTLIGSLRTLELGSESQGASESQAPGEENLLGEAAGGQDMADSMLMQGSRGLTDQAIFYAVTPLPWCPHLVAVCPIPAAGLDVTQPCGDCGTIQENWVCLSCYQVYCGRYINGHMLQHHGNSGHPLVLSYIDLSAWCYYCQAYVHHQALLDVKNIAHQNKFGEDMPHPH
The experiment is described as follows: HDAC1/6 Enzyme Inhibitory Assay (HDAC-Glo I/II Assay kit), HDAC6. Particulars: 1 μM test compound; wells without enzyme = 100% inhibition; read-out: HDAC6 inhibitory rate (%) (1 μM). In a few lines: as §1

Structures are written as SMILES.

T1 sequence (Q13547 whole entry): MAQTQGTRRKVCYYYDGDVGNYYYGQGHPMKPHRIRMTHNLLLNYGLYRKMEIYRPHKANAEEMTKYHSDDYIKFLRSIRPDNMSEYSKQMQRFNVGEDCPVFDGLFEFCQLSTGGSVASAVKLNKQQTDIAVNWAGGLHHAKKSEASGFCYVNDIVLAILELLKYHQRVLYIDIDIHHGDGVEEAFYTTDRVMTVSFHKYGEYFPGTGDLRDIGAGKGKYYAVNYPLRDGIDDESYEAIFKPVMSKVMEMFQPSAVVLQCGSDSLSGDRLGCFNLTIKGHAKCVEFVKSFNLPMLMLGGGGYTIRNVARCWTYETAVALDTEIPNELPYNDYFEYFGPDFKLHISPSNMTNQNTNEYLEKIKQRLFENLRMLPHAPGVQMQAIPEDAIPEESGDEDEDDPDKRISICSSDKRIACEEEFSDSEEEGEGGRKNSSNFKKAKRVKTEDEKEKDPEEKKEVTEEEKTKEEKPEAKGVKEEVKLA

Take `O=C(N[C@@H]1CCCC[C@H]1N1Cc2ccc(-c3noc(C(F)(F)F)n3)cc2C1=O)[C@H]1CCCO1` [Example 129, (2R)-N-((1R,2R)-2-(1-oxo-6-(5-(trifluoromethyl)-1,2,4-oxadiazol-3-yl)-1,3-dihydro-2H-isoindol-2-yl)cyclohexyl)tetrahydrofuran-2-carboxamide]: the inhibition at 1 µM at HDAC1 enzyme turned out to be 9%; on HDAC9 enzyme it was 45%; at HDAC6 enzyme it was 100%.

Regarding `O=C(N[C@@H]1COCC[C@H]1N1Cc2ccc(-c3noc(C(F)(F)F)n3)cc2C1=O)C1CC1` [Example 82, N-((3S,4R)-4-(1-oxo-6-(5-(trifluoromethyl)-1,2,4-oxadiazol-3-yl)-1,3-dihydro-2H-isoindol-2-yl)tetrahydro-2H-pyran-3-yl)cyclopropanecarboxamide], the inhibition at 1 µM at HDAC1 enzyme turned out to be 10%; on HDAC9 enzyme, 61%; on HDAC6 enzyme, 99%.

As to `CN1CCC[C@H]1C(=O)N[C@@H]1CCCC[C@H]1N1Cc2ccc(-c3noc(C(F)(F)F)n3)cc2C1=O` [Example 104, 1-methyl-N-((1R,2R)-2-(1-oxo-6-(5-(trifluoromethyl)-1,2,4-oxadiazol-3-yl)-1,3-dihydro-2H-isoindol-2-yl)cyclohexyl)-L-prolinamide], the results for the inhibition at 1 µM on HDAC1 enzyme, on HDAC9 enzyme and at HDAC6 enzyme were 3%, 43% and 98%, respectively.

Take `O=C(N[C@@H]1CCCC[C@H]1N1Cc2ccc(-c3noc(C(F)(F)F)n3)cc2C1=O)N1CC2CC1CO2` (stereo partly drawn) [Example 156, N-((1R,2R)-2-(1-oxo-6-(5-(trifluoromethyl)-1,2,4-oxadiazol-3-yl)-1,3-dihydro-2H-isoindol-2-yl)cyclohexyl)-2-oxa-5-azabicyclo[2.2.1]heptane-5-carboxamide]: the “HDAC1 inhibitory rate (%) (1 μM)” value on HDAC1 enzyme (1 µM) is listed as −1%. Further, the results for the inhibition at 1 µM at HDAC9 enzyme and at HDAC6 enzyme were 8% and 96%, respectively.

With `CC(C)(C)OC(=O)N[C@@H]1CCCC[C@@H]1N1Cc2ccc(-c3noc(C(F)(F)F)n3)cc2C1=O` (relative stereo) [Example 198, tert-butyl (cis-2-(1-oxo-6-(5-(trifluoromethyl)-1,2,4-oxadiazol-3-yl)-1,3-dihydro-2H-isoindol-2-yl)cyclohexyl)carbamate], the inhibition at 1 µM at HDAC1 enzyme was 26%; at HDAC9 enzyme it was 66%; at HDAC6 enzyme it was 95%.

Turning to `CC(=O)N1C[C@@H](N2Cc3ccc(-c4noc(C(F)(F)F)n4)cc3C2=O)[C@H](c2ccccc2)C1` (relative stereo) [Example 4, trans-2-(1-acetyl-4-phenylpyrrolidin-3-yl)-6-(5-(trifluoromethyl)-1,2,4-oxadiazol-3-yl)isoindolin-1-one], the inhibition at 1 µM at HDAC1 enzyme is 69%; on HDAC9 enzyme, 96%; on HDAC6 enzyme, 99%.

Consider `CC1(C)C(C(=O)N[C@@H]2CCCC[C@H]2N2Cc3ccc(-c4noc(C(F)(F)F)n4)cc3C2=O)C1(C)C` [Example 99, 2,2,3,3-tetramethyl-N-((1R,2R)-2-(1-oxo-6-(5-(trifluoromethyl)-1,2,4-oxadiazol-3-yl)-1,3-dihydro-2H-isoindol-2-yl)cyclohexyl) cyclopropanecarboxamide], for which the inhibition at 1 µM came to 13% on HDAC1 enzyme, 51% at HDAC9 enzyme and 100% on HDAC6 enzyme.

As for `O=C(N[C@@H]1CCCC[C@H]1N1Cc2ccc(-c3noc(C(F)(F)F)n3)cc2C1=O)N1C2CCCC1COC2` [Example 167, N-((1R,2R)-2-(1-oxo-6-(5-(trifluoromethyl)-1,2,4-oxadiazol-3-yl)-1,3-dihydro-2H-isoindol-2-yl)cyclohexyl)-3-oxa-9-azabicyclo[3.3.1]nonane-9-carboxamide], the inhibition at 1 µM at HDAC1 enzyme came out at 7%; on HDAC9 enzyme, 34%; on HDAC6 enzyme, 101%.

Regarding `N[C@@H]1CCCC[C@H]1N1Cc2ccc(-c3noc(C(F)(F)F)n3)cc2C1=O` (relative stereo) [Example 7, trans-2-(2-aminocyclohexyl)-6-(5-(trifluoromethyl)-1,2,4-oxadiazol-3-yl)isoindolin-1-one], the inhibition at 1 µM on HDAC1 enzyme is 6%; on HDAC9 enzyme, 72%; on HDAC6 enzyme, 76%.

As to `CC(C)(C)OC(=O)N1CC[C@@H](N2Cc3ccc(-c4noc(C(F)(F)F)n4)cc3C2=O)[C@@H](c2ccccc2)C1` [Example 19, tert-butyl (3S,4R)-4-(1-oxo-6-(5-(trifluoromethyl)-1,2,4-oxadiazol-3-yl)-1,3-dihydro-2H-isoindol-2-yl)-3-phenylpiperidine-1-carboxylate], the figures for the inhibition at 1 µM on HDAC1 enzyme, on HDAC9 enzyme and at HDAC6 enzyme were 18%, 48% and 99%, respectively.

For `CC(C)(C)OC(=O)N1CC[C@@H](N2Cc3ncc(-c4noc(C(F)(F)F)n4)cc3C2=O)[C@H](c2ccccc2)C1` [Example 88, tert-butyl (3R,4R)-4-(5-oxo-3-(5-(trifluoromethyl)-1,2,4-oxadiazol-3-yl)-5,7-dihydro-6H-pyrrolo[3,4-b]pyridin-6-yl)-3-phenylpiperidine-1-carboxylate], the inhibition at 1 µM on HDAC1 enzyme stood at 79%; at HDAC9 enzyme it was 97%; at HDAC6 enzyme, 98%.

In the case of `O=C(N[C@@H]1CCCC[C@H]1N1Cc2ccc(-c3noc(C(F)(F)F)n3)cc2C1=O)N1CCS(=O)(=O)CC1` [Example 168, N-((1R,2R)-2-(1-oxo-6-(5-(trifluoromethyl)-1,2,4-oxadiazol-3-yl)-1,3-dihydro-2H-isoindol-2-yl)cyclohexyl)thiomorpholine-4-carboxamide 1,1-dioxide], the inhibition at 1 µM stood at 5% at HDAC1 enzyme, 23% at HDAC9 enzyme and 96% at HDAC6 enzyme.

Regarding `CC(C)(C)OC(=O)N1CC[C@H](N2Cc3ccc(-c4noc(C(F)(F)F)n4)cc3C2=O)[C@H](c2ccccc2)C1` [Example 14, tert-butyl (3R,4S)-4-(1-oxo-6-(5-(trifluoromethyl)-1,2,4-oxadiazol-3-yl)-1,3-dihydro-2H-isoindol-2-yl)-3-phenylpiperidine-1-carboxylate], the inhibition at 1 µM at HDAC1 enzyme was found to be 0%; at HDAC9 enzyme it was 48%; on HDAC6 enzyme, 68%.

In the case of `O=C(c1ccccc1)N1CC(N2Cc3ncc(-c4noc(C(F)(F)F)n4)cc3C2=O)C1` [Example 76, 6-(1-benzoylazetidin-3-yl)-3-(5-(trifluoromethyl)-1,2,4-oxadiazol-3-yl)-6,7-dihydro-5H-pyrrolo[3,4-b]pyridin-5-one], the inhibition at 1 µM at HDAC1 enzyme stood at 31%; on HDAC9 enzyme, 89%; on HDAC6 enzyme, 85%.

For the molecule `O=C(N[C@@H]1CCCC[C@H]1N1Cc2ccc(-c3noc(C(F)(F)F)n3)cc2C1=O)C1CCOC1` (stereo partly drawn) [Example 116, N-((1R,2R)-2-(1-oxo-6-(5-(trifluoromethyl)-1,2,4-oxadiazol-3-yl)-1,3-dihydro-2H-isoindol-2-yl)cyclohexyl)tetrahydrofuran-3-carboxamide], the inhibition at 1 µM on HDAC1 enzyme worked out at 4%; on HDAC9 enzyme it was 45%; at HDAC6 enzyme, 98%.
